In article PMC6631687, “Relevance of In Vitro Metabolism Models to PET Radiotracer Development: Prediction of In Vivo Clearance in Rats from Microsomal Stability Data” (Pharmaceuticals, 2019):
Read-outs that look alike come from different tables or passages of the source.

How the values were obtained:
[1] = Lipophilicity (log P); format: physicochemical
Description: Table 1 Metabolic stability of the xanthine A1AR ligands in rat liver microsomes and predicted plasma clearance (CLp). Experiments were conducted in triplicate. fmic, unbound fraction in microsomes; CLint, intrinsic clearance; SD, standard deviation. | column: Log P

[2] = Microsomal stability assay (substrate depletion) in rat liver microsomes; format: in vitro ADME; conditions: male, Sprague Dawley; for half-life at 8 µM: pH 7.4, 8 µM substrate, 0.5 mg/mL protein, triplicate, read-out: In vitro t1/2 (SD); for CLint scaled at 8 µM: pH 7.4, scaled from in vitro t1/2 with fmic, 60 mg protein/g liver, 40 g liver/kg, read-out: CLint (SD), intrinsic clearance
Description: RLM (Sprague Dawley, male, 20 mg/mL protein concentration) were purchased from Thermo Fisher Scientific/Life Technologies (Darmstadt, Germany). Assay conditions (buffer, microsomal protein concentration, solvent) were evaluated and optimized in a preliminary study. RLM (0.5 mg/mL microsomal protein) and substrate (8 µM CBX, MCBX or CPFPX, 1 mM stock solutions in DMSO) were preincubated for 5 min at 37 °C in HEPES buffer (100 mM, pH 7.4) containing MgCl2 (3.3 mM). Reactions were initiated by addition of preheated NADPH (1.3 mM). Final incubation volume was 1 mL. Aliquots (100 µL) were withdrawn at 0, 2, 5, 10, 15 and 20 min and quenched with an equal volume of methanol/acetonitrile (50:50, v/v, cooled to −20 °C). The samples were mixed on a vortex mixer (1 min, 21 °C) and centrifuged (20,000 rcf, 10 min, 21 °C) to sediment precipitated protein. The supernatants (aliquots of 50 µL) were analyzed on a Knauer smartline HPLC-UV/VIS system (Knauer, Berlin, Germany) equipped with a manual sample injector (Rheodyne type 7125), a 500 µL sample loop and a Kromasil 100-5-C18 (4.6 × 250 mm) analytical column (AkzoNobel, Bohus, Sweden). Chromatography was performed using a mobile phase composition of ACN/H2O/HAc 48:52:0.2 (v/v/v), and with a flow rate of 1 mL/min and a detection wavelength of 275 nm. Experiments were conducted in triplicate.
Substrate depletion was calculated from the area ratios of the analyte peak, using the value at t = 0 min as 100%. Depletion data were fitted to the monoexponential decay model (Equation (1)) to derive in vitro t1/2. (1) C(t)=C0e^−ln2/t1/2t where C0 is the substrate concentration at time t = 0.
(§1) Intrinsic clearance was calculated from in vitro t1/2 using the equation [38]:(2) CLint=ln2/in vitro t1/2 (min)×fmic×ml incubation/mg microsomal protein×mg microsomal protein/g liver weight×g liver/kg body weight where scaling factors of 60 mg of microsomal protein per gram of liver and 40 g of liver tissue per kilogram of body weight were applied.

[3] = Prediction of in vivo plasma clearance from microsomal stability data (well-stirred liver model) and prediction accuracy; format: in vitro ADME; conditions: rat; for CLp Predicted (SD), predicted plasma clearance: well-stirred liver model, corrected for microsomal and plasma protein binding; for Fold Error CL (ratio predicted/observed) / Fold Underprediction CL: predicted vs observed CLp
Description: as §1
In vivo clearance in plasma was predicted using the well-stirred liver model:(4) CLp=Q×fp×CLint/Q+fp×CLint where fp is the fraction unbound in plasma and Q is hepatic blood flow with a given value of 55 mL/min/kg for rat.
The individual prediction accuracy was assessed by calculation of fold error (ratio predicted/observed). AFE (Equation (5)) and RMSE (Equation (6)) were used as measures for overall bias and precision. Underprediction was also expressed as fold underprediction, which is the inverse of AFE. (5) AFE=10^1/n∑logpredicted/observed (6) RMSE=1/n∑(predicted−observed)^2 with n, number of predictions.

[4] = In vivo pharmacokinetics in rat plasma after i.v. administration; conditions: for clearance / Vd / half-life: iv, single i.v. dose approx. 0.4 nmol, mean plasma curves, triexponential fit; for clearance: read-out: CLp (plasma clearance, in vivo); for Vd: read-out: Vd (volume of distribution); for half-life: read-out: t1/2,term (terminal half-life); for Parent fraction (authentic radiotracer of total plasma radioactivity): rat plasma, 180 min p.i., radio-TLC
Description: Pharmacokinetic experiments on rats (n = 27) were conducted under isoflurane anesthesia (1.5–2% in oxygen) with continuous monitoring of physiological parameters. Polyethylene catheters (PE 50; filled with heparinized saline) were implanted into the femoral artery for arterial blood sampling and the lateral tail vein for radiotracer application. [^18F]CPFPX, [^18F]MCBX or [^18F]CBX (21 ± 2.5 MBq, 0.39 ± 0.20 nmol) was formulated in physiological saline (1 mL total volume) and administered over 1 min using a syringe pump (model 44, Harvard Apparatus, Holliston, MA, USA). Arterial blood samples (ca. 200 μL) were collected at regular time intervals throughout the 180-min experiment. The total blood sampling volume was kept below 10% of the circulating blood volume of the animal. Plasma was separated by centrifugation (3,000 rcf, 3 min, 21 °C), weighed and measured in a γ-counter (ISOMED 2100, MED Nuklear-Medizintechnik Dresden GmbH, Dresden, Germany) to calculate plasma radioactivity concentration. Fractions of unchanged radiotracer (parent fraction) and radiolabeled metabolites in plasma were assessed by radio-thin layer chromatography (TLC) analysis. Aliquots (45 μL) of plasma were mixed with 3 volumes of methanol/acetonitrile (50:50, v/v, 4 °C), vortexed (1 min, 21 °C) and centrifuged (20,000 rcf, 5 min, 21 C) to sediment precipitated protein. Aliquots (5 μL) of the supernatants were spotted on a TLC plate (SIL G-25, 10 × 20 cm, Macherey-Nagel, Düren, Germany). The TLC plate was developed with ethyl acetate/hexane, 75:25 (v/v), dried and subsequently imaged for 50 min with an electronic autoradiography system (InstantImager, Canberra-Packard, Rüsselsheim, Germany).
PK analysis was performed on decay and metabolite-corrected plasma radioactivity data of 8 ([^18F]CBX, [^18F]CPFPX) or 9 ([^18F]MCBX) individual animals. Data of 2 animals could not be used for PK analysis due to paravenous radiotracer injection. Since interindividual variations in plasma kinetics within the test groups were relatively small, individual plasma data were combined to mean data sets for analysis. Assuming a specific density of 1 g/mL for plasma, radioactivity concentration was calculated and plotted against time. For data visualization, plasma radioactivity concentration was normalized to body weight and amount of injected radioactivity, yielding SUV. PK parameters were derived from the radioactivity concentration-time data via nonlinear regression analysis applying a triexponential model:(7) Cp(t)=A1e^−λ1t+A2e^−λ2t+A3e^−λ3t where Cp is the plasma radioactivity concentration, t is time, A1, A2, and A3 represent the y-intercepts of the distribution/elimination phases of the plasma concentration-time curve and λ1, λ2, and λ3 represent the first-order rate constants of the phases.
Plasma clearance, volume of distribution and terminal half-life were calculated from the model parameters A and λ according to the following equations [44]:(8) CLp=D/∫0∞Cp(t)dt=D/∑i=1nAi/λi (9) Vd=Clp/λ3 (10) t1/2,term=ln 2/λ3 where D is the injected radioactivity and λ3 is the terminal rate constant.

SMILES	logP [1]	half-life at 8 µM [2] [min]	CLint scaled at 8 µM [2] [mL/min/kg]	CLp Predicted (SD), predicted plasma clearance [3]	Fold Error CL (ratio predicted/observed) [3]	clearance ([4]; rat) [mL/min/kg]	Vd ([4]; rat) [L/kg]	half-life ([4]; rat) [min]	Parent fraction (authentic radiotracer of total plasma radioactivity) [4]	Plasma level relative to [^18F]CPFPX ([4]; rat, second and third phase of the curve (10-180 min p.i.))	Fold Underprediction CL [3]	half-life ([4]; 0.39 nmol, rat) [min]
CCCn1c(=O)c2[nH]c(C3CCC3)nc2n(CCCF)c1=O [CBX]	2.19	35.1	106	2.72 (0.13) mL/min/kg								
CCCn1c(=O)c2nc(C3CCCC3)[nH]c2n(CCCF)c1=O [CPFPX, reference compound]	2.93	14	295	4.70 (0.07) mL/min/kg	0.66							
CCCn1c(=O)c2[nH]c(C3(C)CCC3)nc2n(CCCF)c1=O [MCBX]	2.82	19.8	204	7.76 (0.22) mL/min/kg								
CCCn1c(=O)c2[nH]c(C3CCC3)nc2n(CCC[18F])c1=O [[^18F]CBX, 8-cyclobutyl-3-(3-[^18F]fluoropropyl)-1-propylxanthine]					0.84	3.22	0.356	76.5	~25%	approximately twice as high	1.2	
CCCn1c(=O)c2[nH]c(C3CCCC3)nc2n(CCC[18F])c1=O [[^18F]CPFPX, 8-cyclopentyl-3-(3-[^18F]fluoropropyl)-1-propylxanthine, reference compound]					0.66	7.1	0.523	51	approximately 7%		1.5	~50
CCCn1c(=O)c2[nH]c(C3(C)CCC3)nc2n(CCC[18F])c1=O [[^18F]MCBX, 3-(3-[^18F]fluoropropyl)-8-(1-methylcyclobutyl)-1-propylxanthine]					0.85	9.1	0.715	54.5	~13%		1.2	~50
